Entries after “also recorded” stand apart in the source; their conditions may differ.
Legend:
[1] = molecular target: T1, megalin (Rattus norvegicus, UniProt P98158); test: QCM method: binding ability to immobilized megalin (Reference Example 1); parameters: purified megalin from rat kidneys according to the method described in NPL 5 was used as the megalin; from tissue; host or cells: rat kidney; conditions: megalin protein immobilized crystal, colistin 240 μg, gentamicin 4000 μg, vancomycin 1600 μg, cisplatin 400 μg, tenofovir 1200 μg
Description: The binding ability of colistin, gentamicin, vancomycin, cisplatin, and tenofovir with respect to megalin was analyzed using the quartz crystal microbalance method (QCM method).
Regarding the immobilization of megalin protein using the Immobilization Kit for AFFINIX (registered trademark) (manufactured by Initium), according to the protocol recommended in the kit, a megalin protein solution adjusted to 12 to 14 μg/mL using Buffer A included in the kit was immobilized by being placed on the crystal installed in the holder.
In more detail, 8 μL of each drug solution was injected to the megalin protein-immobilized crystal placed in the surface of water containing 8 mL of buffer, and the frequency was measured. As a control, measurement was also performed in the same manner with respect to a crystal where the megalin protein was not immobilized. The measurement data was analyzed using dedicated analysis software AQUA (produced by Initium).

[2] = test system: nephrotoxicity of cisplatin; conditions: rats, reported in PTL 2; cited from earlier work
[3] = test system: colistin-induced renal impairment; test: Colistin nephropathy in rats, urinary NAG/CRE (Example 3)
Description: Cilastatin and colistin were co-administered to rats and it was investigated whether or not nephropathy due to colistin was reduced by the megalin ligand antagonistic action of cilastatin.
In evaluating the colistin nephropathy reduction effect due to cilastatin, a colistin solution and a cilastatin solution were prepared as follows.
In the preparation of the colistin solution, first, a colistin stock solution (colistin concentration: 10 mg/mL) was prepared by dissolving 360 mg of colistin sulfate in 30 mL of a saline solution. The colistin stock solution was sterilized by filtration with a 22 mm PVDF membrane and then stored at 4° C. and a colistin administration solution was prepared by diluting the solution with a saline solution before the colistin administration. […]
The concentrations of urinary β-D-N-acetyl-glucosaminidase (NAG) and creatinine (CRE) in the recovered urine were each measured using a measurement kit (product name: CREP 2 and BUNK, both were measured by Roche Diagnostics Co., Ltd.) using a discrete method automatic clinical chemistry analyzer (product name: COBAS INTEGRA 400 plus, manufactured by Roche Diagnostics Co., Ltd.), and the urinary NAG/CRE values of each test group were calculated.

[4] = test system: kidney tissue (renal tubular cell damage); test: Nephrotoxicity caused by colistin in C57BL/6 mice, PAS staining and KIM-1 Western blot (Example 4)
Description: Division was made into a group in which 30 mg/kg/day of colistin was subcutaneously administered over four days to 12-week-old male C57BL/6 mice (colistin-administered group: colstin), a group in which 100 mg/kg/day of cilastatin was subcutaneously administered over four days in combination with the subcutaneous administration of 30 mg/kg/day of colistin over four days (colistin+cilastatin combination group: colstin+cilastatin), and, as a control, a group in which a physiological saline solution was subcutaneously administered over four days instead of colistin (saline group: saline), administration was performed in the same manner as the protocol of Reference Example 2 described above, after that, the kidney tissue was taken and histochemical staining (PAS staining) was performed.
Furthermore, using the extracted kidney tissue, the expression of KIM-1, which is a renal tubular cell damage marker, was confirmed by Western blot.

[5] = test system: ATCC25922 strain (E. coli standard strain); test: Disk method anti-microbial activity (Reference Example 4); format: cell-based
Description: An ATCC25922 strain (E. coli standard strain) was cultured for 20 hours using Mueller Hinton agar (MHA) and then the cultured colonies were suspended in saline and adjusted to obtain a solution equivalent to McFarland turbidity standard 0.5. After uniformly coating and drying the microbial solution on the MHA, 10 μg of colistin, cilastatin, and colistin and cilastatin were each added to 6 mm Whatman filter paper discs, disposed at equal intervals on the MHA described above, and cultured for 20 hours at 37° C., and the blocking circles were compared.

[6] = molecular target: T1, megalin
From the text: Next, detailed description will be given of the present invention through the illustration of examples, and the like; however, the present invention is not limited thereto. In the following Examples and the like, purified megalin from rat kidneys according to the method described in NPL 5 was used as the megalin, cilastatin sodium (produced by Sigma-Aldrich Co. LLC.) was used as the cilastatin, colistin sulfate (produced by Sigma-Aldrich Co. LLC.) was used as the colistin, gentamicin produced by Sigma-Aldrich Co. LLC. was used as the gentamicin, vancomycin produced by Sigma-Aldrich Co. LLC. was used as the vancomycin, tenofovir produced by Sigma-Aldrich Co. LLC. was used as the tenofovir, and cisplatin produced by Bristol-Myers Co., Ltd., was used as the cisplatin.
The antagonism effect with respect to the binding of colistin to megalin due to cilastatin was investigated using the QCM method.
As a control, measurement and analysis were carried out in the same manner except that cilastatin was not injected (cilastatin injection amount: 0 μg).
The antagonistic action of cilastatin on the binding of gentamicin, vancomycin, cisplatin, and tacrolimus to megalin was investigated using the QCM method.
Specifically, the measurement and analysis of the frequency were carried out in the same manner as for Example 1 except that the injection amount of cilastatin was set to 4000 μg and 4000 μg of gentamicin was used instead of 240 μg of colistin.
In addition, the measurement and analysis of the frequency were carried out in the same manner as for Example 1 except that the injection amount of cilastatin was set to 5000 μg and 1000 μg of vancomycin was used instead of 240 μg of colistin.
In addition, the measurement and analysis of the frequency were carried out in the same manner as for Example 1 except that the injection amount of cilastatin was set to 10000 μg and 800 μg of cisplatin was used instead of 240 μg of colistin.
Furthermore, the measurement and analysis of the frequency were carried out in the same manner as for Example 1 except that the injection amount of cilastatin was set to 2000 μg and 160 μg of tacrolimus was used instead of 240 μg of colistin.

[7] = test system: proximal tubular cells; test: Renal tubular cell damage by colistin in kidney specific mosaic-type megalin knockout mice (Reference Examples 2 and 3); format: in vivo, mice (apoE cre/megalin loxP)
Description: Renal tubular cell damage caused when colistin was administered to megalin mosaic-type knockout mice was analyzed.
First, 12-week-old kidney specific mosaic-type megalin knockout mice (apoE cre/megalin loxP) were used in the experiments (in these mice, genes expressing megalin in about 60% of proximal tubular cells were knocked out). With respect to these mice, the subcutaneous administration of colistin was performed over four days (30 mg/kg/day), after that, proximal tubular cells were analyzed and immunohistochemical staining was performed.
With the same method as in Reference Example 2, colistin was administered to renal-specific mosaic-type megalin knockout mice, after that, the proximal tubular cells were analyzed, and the expression of KIM-1 (Kidney Injury Molecule 1), which is an injury marker of proximal tubular cells, and the expression of megalin were confirmed using a fluorescent double staining method.

[8] = 10 μg on 6 mm filter paper disc, MHA, 20 hours at 37° C.
[9] = colistin 30 mg/kg/day subcutaneous over four days

T1 sequence (P98158 26-4660): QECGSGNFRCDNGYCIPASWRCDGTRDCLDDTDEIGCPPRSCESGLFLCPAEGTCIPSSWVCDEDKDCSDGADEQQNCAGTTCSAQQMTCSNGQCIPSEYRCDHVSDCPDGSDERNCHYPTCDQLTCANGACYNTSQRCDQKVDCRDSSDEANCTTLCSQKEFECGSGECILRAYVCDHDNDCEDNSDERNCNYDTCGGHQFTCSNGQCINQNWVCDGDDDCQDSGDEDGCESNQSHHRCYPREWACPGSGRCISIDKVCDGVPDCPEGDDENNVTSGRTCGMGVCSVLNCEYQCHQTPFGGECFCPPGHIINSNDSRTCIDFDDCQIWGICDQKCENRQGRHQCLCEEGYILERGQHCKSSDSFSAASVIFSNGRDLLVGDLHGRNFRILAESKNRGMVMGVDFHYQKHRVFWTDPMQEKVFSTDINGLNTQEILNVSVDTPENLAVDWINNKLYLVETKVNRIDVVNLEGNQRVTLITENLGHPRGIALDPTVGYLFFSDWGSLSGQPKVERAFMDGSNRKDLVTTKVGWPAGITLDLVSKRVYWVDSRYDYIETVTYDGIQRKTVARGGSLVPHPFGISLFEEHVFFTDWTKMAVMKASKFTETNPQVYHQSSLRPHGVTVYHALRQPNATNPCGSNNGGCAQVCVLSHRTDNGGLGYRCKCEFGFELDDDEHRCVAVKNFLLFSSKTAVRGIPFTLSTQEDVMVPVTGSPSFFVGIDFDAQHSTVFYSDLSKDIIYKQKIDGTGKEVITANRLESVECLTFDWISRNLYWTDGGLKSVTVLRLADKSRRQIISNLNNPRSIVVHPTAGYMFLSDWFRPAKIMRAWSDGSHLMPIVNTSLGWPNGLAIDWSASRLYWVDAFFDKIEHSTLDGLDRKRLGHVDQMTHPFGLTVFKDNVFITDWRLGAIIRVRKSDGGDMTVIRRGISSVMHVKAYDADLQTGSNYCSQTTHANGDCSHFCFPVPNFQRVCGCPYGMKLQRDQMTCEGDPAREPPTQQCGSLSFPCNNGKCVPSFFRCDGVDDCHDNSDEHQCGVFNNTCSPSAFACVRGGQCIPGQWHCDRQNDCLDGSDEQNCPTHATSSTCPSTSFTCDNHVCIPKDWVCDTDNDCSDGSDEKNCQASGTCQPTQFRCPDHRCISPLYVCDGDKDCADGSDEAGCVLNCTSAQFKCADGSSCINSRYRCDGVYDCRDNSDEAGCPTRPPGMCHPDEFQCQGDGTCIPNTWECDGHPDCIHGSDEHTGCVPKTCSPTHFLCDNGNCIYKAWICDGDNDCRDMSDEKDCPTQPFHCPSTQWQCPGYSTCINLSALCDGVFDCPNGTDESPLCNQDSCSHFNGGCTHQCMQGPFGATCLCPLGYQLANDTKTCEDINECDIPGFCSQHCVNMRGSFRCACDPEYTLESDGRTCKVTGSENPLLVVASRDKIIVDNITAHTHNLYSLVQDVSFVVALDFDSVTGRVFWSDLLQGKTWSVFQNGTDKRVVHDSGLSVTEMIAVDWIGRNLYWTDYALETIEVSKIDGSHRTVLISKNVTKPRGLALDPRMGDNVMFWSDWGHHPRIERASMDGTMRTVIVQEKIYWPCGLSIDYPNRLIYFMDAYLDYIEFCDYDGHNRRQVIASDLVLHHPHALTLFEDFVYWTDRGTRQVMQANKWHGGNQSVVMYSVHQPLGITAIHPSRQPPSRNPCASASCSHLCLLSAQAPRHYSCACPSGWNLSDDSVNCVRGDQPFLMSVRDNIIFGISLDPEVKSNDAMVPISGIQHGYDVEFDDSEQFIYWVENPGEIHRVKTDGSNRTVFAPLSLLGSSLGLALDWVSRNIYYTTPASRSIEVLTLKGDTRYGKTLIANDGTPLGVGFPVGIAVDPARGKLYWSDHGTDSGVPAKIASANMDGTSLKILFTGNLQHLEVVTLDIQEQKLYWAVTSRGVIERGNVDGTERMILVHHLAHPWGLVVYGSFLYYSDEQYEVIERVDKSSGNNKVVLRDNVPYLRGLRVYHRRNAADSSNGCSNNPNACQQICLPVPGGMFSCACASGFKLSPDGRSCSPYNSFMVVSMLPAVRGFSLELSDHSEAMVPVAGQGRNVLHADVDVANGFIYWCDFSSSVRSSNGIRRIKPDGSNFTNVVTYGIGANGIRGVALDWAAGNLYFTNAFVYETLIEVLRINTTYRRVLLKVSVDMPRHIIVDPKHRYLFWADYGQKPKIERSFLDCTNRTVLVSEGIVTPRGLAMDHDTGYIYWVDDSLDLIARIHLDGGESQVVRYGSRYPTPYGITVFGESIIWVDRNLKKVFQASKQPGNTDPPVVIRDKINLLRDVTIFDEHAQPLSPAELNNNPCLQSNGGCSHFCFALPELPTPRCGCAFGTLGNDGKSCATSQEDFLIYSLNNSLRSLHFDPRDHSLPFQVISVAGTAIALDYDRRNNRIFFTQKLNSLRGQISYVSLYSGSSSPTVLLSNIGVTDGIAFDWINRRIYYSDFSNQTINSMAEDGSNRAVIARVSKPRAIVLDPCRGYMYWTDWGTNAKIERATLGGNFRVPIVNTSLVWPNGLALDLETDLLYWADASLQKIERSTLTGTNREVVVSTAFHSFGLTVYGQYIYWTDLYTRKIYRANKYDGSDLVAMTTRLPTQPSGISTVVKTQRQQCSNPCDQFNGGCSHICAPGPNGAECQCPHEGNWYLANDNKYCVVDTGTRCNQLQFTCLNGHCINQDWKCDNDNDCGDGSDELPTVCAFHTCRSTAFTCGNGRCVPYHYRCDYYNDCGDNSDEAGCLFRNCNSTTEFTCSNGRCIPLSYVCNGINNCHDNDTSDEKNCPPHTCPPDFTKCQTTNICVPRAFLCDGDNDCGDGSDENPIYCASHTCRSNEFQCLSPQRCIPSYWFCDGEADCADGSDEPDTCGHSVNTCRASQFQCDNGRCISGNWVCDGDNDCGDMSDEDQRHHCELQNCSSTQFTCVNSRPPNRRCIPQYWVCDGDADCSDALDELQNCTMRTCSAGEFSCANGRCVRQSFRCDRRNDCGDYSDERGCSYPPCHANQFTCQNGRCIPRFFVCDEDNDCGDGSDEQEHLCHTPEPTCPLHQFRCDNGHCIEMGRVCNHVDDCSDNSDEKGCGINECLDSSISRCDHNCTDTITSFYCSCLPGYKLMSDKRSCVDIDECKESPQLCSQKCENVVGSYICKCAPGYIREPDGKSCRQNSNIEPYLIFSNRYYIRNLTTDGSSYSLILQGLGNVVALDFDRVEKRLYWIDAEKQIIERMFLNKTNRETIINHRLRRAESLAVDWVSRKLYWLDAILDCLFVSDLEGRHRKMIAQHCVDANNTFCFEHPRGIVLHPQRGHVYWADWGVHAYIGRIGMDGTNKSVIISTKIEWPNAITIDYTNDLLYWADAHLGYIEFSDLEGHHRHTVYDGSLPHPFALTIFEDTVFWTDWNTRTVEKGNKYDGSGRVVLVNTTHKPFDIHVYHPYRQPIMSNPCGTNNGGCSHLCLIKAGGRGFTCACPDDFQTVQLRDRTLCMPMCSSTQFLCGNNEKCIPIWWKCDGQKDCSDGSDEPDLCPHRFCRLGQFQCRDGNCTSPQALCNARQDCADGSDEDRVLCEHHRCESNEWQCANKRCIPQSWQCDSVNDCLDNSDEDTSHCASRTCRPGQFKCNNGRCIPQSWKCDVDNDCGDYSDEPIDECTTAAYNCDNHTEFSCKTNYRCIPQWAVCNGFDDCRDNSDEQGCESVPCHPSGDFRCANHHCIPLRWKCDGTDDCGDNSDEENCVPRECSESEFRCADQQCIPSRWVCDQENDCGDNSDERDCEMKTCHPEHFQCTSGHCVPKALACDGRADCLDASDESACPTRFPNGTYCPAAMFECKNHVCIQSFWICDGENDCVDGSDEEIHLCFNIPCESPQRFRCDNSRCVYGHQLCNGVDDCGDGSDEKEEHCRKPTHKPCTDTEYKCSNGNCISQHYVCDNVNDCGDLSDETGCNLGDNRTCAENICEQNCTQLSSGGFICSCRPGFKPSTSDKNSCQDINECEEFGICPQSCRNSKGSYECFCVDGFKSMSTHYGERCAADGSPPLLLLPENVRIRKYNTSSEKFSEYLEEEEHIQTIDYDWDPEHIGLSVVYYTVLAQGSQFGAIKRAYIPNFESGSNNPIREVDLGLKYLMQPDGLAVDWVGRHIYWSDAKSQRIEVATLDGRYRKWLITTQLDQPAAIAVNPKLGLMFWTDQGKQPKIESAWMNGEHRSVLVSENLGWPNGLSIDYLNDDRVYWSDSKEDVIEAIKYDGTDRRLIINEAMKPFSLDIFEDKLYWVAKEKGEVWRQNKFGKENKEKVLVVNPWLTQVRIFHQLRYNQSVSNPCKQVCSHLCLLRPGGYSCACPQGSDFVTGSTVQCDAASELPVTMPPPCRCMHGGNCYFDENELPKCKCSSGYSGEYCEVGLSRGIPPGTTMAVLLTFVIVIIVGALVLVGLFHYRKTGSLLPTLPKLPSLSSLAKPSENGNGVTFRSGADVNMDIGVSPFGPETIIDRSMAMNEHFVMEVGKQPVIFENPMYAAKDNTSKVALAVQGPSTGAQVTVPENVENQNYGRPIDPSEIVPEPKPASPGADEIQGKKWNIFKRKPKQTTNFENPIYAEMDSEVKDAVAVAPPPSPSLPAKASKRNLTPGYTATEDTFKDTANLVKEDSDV

For `N.N.[Cl][Pt][Cl]` [cisplatin], the “binding to megalin (frequency decrease after injection)” value [1] was “binding to megalin was confirmed”.

For `CN[C@H](CC(C)C)C(=O)N[C@H]1C(=O)N[C@@H](CC(N)=O)C(=O)N[C@H]2C(=O)N[C@H]3C(=O)N[C@H](C(=O)N[C@H](C(=O)O)c4cc(O)cc(O)c4-c4cc3ccc4O)[C@H](O)c3ccc(c(Cl)c3)Oc3cc2cc(c3O[C@@H]2O[C@H](CO)[C@@H](O)[C@H](O)[C@H]2O[C@H]2C[C@](C)(N)[C@H](O)[C@H](C)O2)Oc2ccc(cc2Cl)[C@H]1O` [vancomycin], the “binding to megalin (frequency decrease after injection)” value [1] was “binding to megalin was confirmed”.

With `C[C@H](Cn1cnc2c(N)ncnc21)OCP(=O)(O)O` [tenofovir] the “binding to megalin (frequency decrease after injection)” value [1] was “not possible to find the binding”.

In the case of `CC1(C)C[C@@H]1C(=O)N/C(=C\CCCCSC[C@H](N)C(=O)O)C(=O)O` [cilastatin, (Z)-7-[[(R)-2-amino-2-carboxyethyl]thio]-2-[[[(S)-2,2-dimethylcyclopropyl]carbonyl]amino]-2-heptenoic acid], the “nephrotoxicity of cisplatin on co-administration with cilastatin” value [2] is listed as “the nephrotoxicity was improved”, the colistin-induced renal impairment ([3]; co-administration of cilastatin 100 mg/kg with colistin, rats) is listed as “colistin-induced renal impairment was reduced” and the “renal tubular cell damage caused by colistin, histologically and biochemically” value ([4]; cilastatin 100 mg/kg/day combined with colistin 30 mg/kg/day) is listed as “remarkably improved”. The “blocking circle / anti-microbial activity” value [5, 8] was “a blocking circle was not formed and anti-microbial activity was not exhibited; also recorded: anti-microbial activity could not be seen”, the “influence on the anti-microbial activity of colistin” value ([5]; colistin and cilastatin on the same disc) was “does not affect the anti-microbial activity of colistin” and the “inhibition of binding of tacrolimus to megalin protein” value ([6]; cilastatin 2000 μg before 160 μg tacrolimus) was “inhibited by cilastatin”. The “inhibition of binding of gentamicin to megalin protein” value ([6]; cilastatin 4000 μg before 4000 μg gentamicin) was “inhibited by cilastatin”, the “inhibition of binding of vancomycin to megalin protein” value ([6]; cilastatin 5000 μg before 1000 μg vancomycin) was “inhibited by cilastatin” and the “inhibition of binding of cisplatin to megalin protein” value ([6]; cilastatin 10000 μg before 800 μg cisplatin) was “inhibited by cilastatin”. For the same compound, the “inhibition of binding of colistin to megalin protein” value ([6]; cilastatin 800, 5000 or 10000 μg injected before 240 μg colistin) was “inhibited depending on the concentration of the cilastatin”.

In the case of colistin, the “urinary NAG/CRE values relative to saline/saline group” value ([3]; saline/colistin group, fifth day, colistin total 20.5 mg/kg over 5 days into jugular vein) is reported as at least 4 times, the “binding to megalin (frequency decrease after injection)” value [1] is reported as “binding to megalin was confirmed” and the “dilatation and cast formation of the tubules (PAS staining)” value [4, 9] is reported as “dilatation and cast formation of the tubules was observed”. For the same compound, the “expression of KIM-1 in kidney tissue (Western blot)” value [4, 9] was “increased expression of KIM-1 was observed”, the “blocking circle / anti-microbial activity” value [5, 8] was “a growth inhibition circle was formed” and the blocking circle diameter [5, 8] was 13.5 mm. For the same compound, the “KIM-1 expression in proximal tubular cells” value ([7]; colistin 30 mg/kg/day subcutaneous over four days, fluorescent double staining with megalin) was “KIM-1 was also expressed in the proximal tubular cells in which megalin, which remained without being knocked out, was expressed”, the “vacuoles in cytoplasm of proximal tubular cells expressing megalin versus megalin knocked out cells” value ([7]; colistin 30 mg/kg/day subcutaneous over four days, immunohistochemical staining) was “numerous vacuoles (arrows) were observed in the cytoplasm” and the “dependence of proximal renal tubular cell damage on megalin expression” value ([7]; mosaic-type megalin knockout mice) was “largely depended on the expression of megalin”.

With `C=CC[C@@H]1/C=C(\C)C[C@H](C)C[C@H](OC)[C@H]2O[C@@](O)(C(=O)C(=O)N3CCCC[C@H]3C(=O)O[C@H](/C(C)=C/[C@@H]3CC[C@@H](O)[C@H](OC)C3)[C@H](C)[C@@H](O)CC1=O)[C@H](C)C[C@@H]2OC` [tacrolimus] the “binding to megalin (frequency decrease after injection)” value [1] was “binding to megalin was confirmed”.

With gentamicin the “binding to megalin (frequency decrease after injection)” value [1] was “binding to megalin was confirmed”.

Reference: patent US10420741B2, “Megalin antagonist” (EA Pharma Co., Ltd., priority 2014, dated 2019)
